Activity calls are given as the source filed them. The rule behind the calls is not given here.
Tests used:
KB [1] = test: Cytotoxicity against human KB cells at 30 uM; assay type: functional
KB [2] = test: Cytotoxicity against human KB cells at 3 uM; assay type: functional

## N=C1N=C(NCCS(=O)(=O)O)/C(=C/CCNC(=O)c2cc(Br)c(Br)[nH]2)N1
KB [1]
  Activity: inactive

## c1ccc2c(-c3c[nH]c(-c4c[nH]c5ccccc45)n3)c[nH]c2c1
KB [1]
  Activity: inactive

## Nc1nc2c([nH]1)c1c(c3[nH]c(N)nc32)[C@H](CNC(=O)c2cc(Br)c(Br)[nH]2)[C@H]1CNC(=O)c1cc(Br)c(Br)[nH]1
KB [1]
  Activity: inactive

## O=C1N[C@H]2[C@@H]3NC(=O)c4cc(Br)c(Br)n4[C@@H]3C[C@@]2(O)N1
KB [1]
  Activity: inactive

## O=C1NCC(O)n2c1cc(Br)c2Br (centres undefined)
KB [1]
  Activity: inactive

## CN1C(=O)N[C@H]2[C@@H]3NC(=O)c4ccc(Br)n4[C@@H]3C[C@]21O [AGELASTATIN A]
KB [2]
  Activity: 100%
KB [1]
  Activity: 100%

## Cc1c[nH]c(=O)[nH]c1=O
KB [1]
  Activity: inactive

## C[C@]1(COC(=O)c2cc(Br)c[nH]2)C[C@@H](C(=O)O)N=CN1
KB [1]
  Activity: inactive

## NC(=O)c1cc(Br)c(Br)[nH]1
KB [1]
  Activity: inactive

## Nc1nc([C@H]2[C@H](CNC(=O)c3cc(Br)c[nH]3)[C@@H](CNC(=O)c3cc(Br)c[nH]3)[C@@H]2c2c[nH]c(N)n2)c[nH]1
KB [1]
  Activity: inactive

## CO[C@@]12C[C@@H]3[C@@H](NC(=O)c4ccc(Br)n43)[C@@H]1NC(=O)N2C
KB [1]
  Activity: inactive

## N=C1N=C(NCCS(=O)(=O)O)/C(=C/C(O)CNC(=O)c2cc(Br)c(Br)[nH]2)N1 (centres undefined)
KB [1]
  Activity: inactive

## O=C1N[C@H]2[C@@H]3NC(=O)c4ccc(Br)n4[C@@H]3C[C@@]2(O)N1
KB [1]
  Activity: inactive

Source: ChEMBL document CHEMBL1157067, “Agelastatin E, agelastatin F, and benzosceptrin C from the marine sponge Agelas dendromorpha” (2010)
